Columns and labels:
Assay type in all cases: ADME, organism-based
Design in all cases: dose 5 mg/kg, route intravenous
[1] = Ratio of drug level in brain to plasma in Swiss mouse at 5 mg/kg, iv
Brain [2] = experiment: Drug level in mouse brain homogenate assessed as compound recovery after 4 hr post dose measured on basis of intraday target compound concentration of 3000 ng/g of brain tissue at 5 mg/kg, iv bolus dose by HPLC; conditions: in vivo
Brain [3] = experiment: Drug level in mouse brain homogenate assessed as compound recovery after 4 hr post dose measured on basis of intraday target compound concentration of 375 ng/g of brain tissue at 5 mg/kg, iv bolus dose by HPLC; conditions: in vivo
Brain [4] = experiment: Drug level in mouse brain homogenate assessed as compound recovery after 4 hr post dose measured on basis of intraday target compound concentration of 93.8 ng/g of brain tissue at 5 mg/kg, iv bolus dose by HPLC; conditions: in vivo

Ratio [1]: 0.02
Activity (Brain [2]): 96%
Activity (Brain [3]): 86%
Activity (Brain [4]): 87%
Sequence: COLISTIN

From ChEMBL document CHEMBL1649240, “Brain penetration of colistin in mice assessed by a novel high-performance liquid chromatographic technique” (Antimicrob Agents Chemother, 2009)
